These results are taken from ChEMBL document CHEMBL1148182, “Flavonone and chalcone derivatives from Cryptocarya kurzii” (J Nat Prod, 1993).

The experiment relates to KB. In words: Cytotoxicity against human KB cells. The format is functional, cell-based.

Converted amounts (≈) assume the structure as drawn.

Regarding `O=C1CCC[C@@H]2C[C@H](C[C@](O)(/C=C/c3ccccc3)O2)c2c(cc(O)c(C(=O)/C=C/c3ccccc3)c2O)O1` [KURZICHALCOLACTONE], the IC50 came out at 15 µg/mL (≈ 28.5 µM).
`O=C1CCC[C@@H]2C[C@H](C[C@](O)(/C=C/c3ccccc3)O2)c2c(cc(O)c3c2O[C@H](c2ccccc2)CC3=O)O1` [KURZIFLAVOLACTONE B] had an IC50 of 4 µg/mL (≈ 7.6 µM).
